Experimental data from patent US8354429B2, “Inhibitors of human immunodeficiency virus replication” (priority 2007, dated 2013).

How the values were obtained:
Format in all cases: cell-based
[1] = system: HIV-1 2.12 virus with Ala124/Thr125 variant integrase (HXB2 integrase); assay: C8166 HIV-1 luciferase assay (EC50), A124/T125 integrase variant virus; conditions: Human immunodeficiency virus 1, HXB2, C8166, read-out: EC50 (nM) A124/T125
From the text: (§1) C8166 cells are derived from a human T-lymphotrophic virus type 1 immortalized but nonexpressing line of cord blood lymphocytes (NIH AIDS reagent 404) and are highly permissive to HIV-1 infection. The pGL3 Basic LTR/TAR plasmid is made by introducing the HIV-1 HxB2 LTR sequence from nucleotide −138 to +80 (Sca1-HindIII) upstream of the luciferase gene in the pGL3 Basic Vector (a promoterless luciferase expression vector from Promega catalogue #E1751) with the gene for blasticidine resistance cloned in. The reporter cells are made by electroporating C8166 cells with pGL3 Basic LTR/TAR and selecting positive clones with blasticidine. Clone C8166-LTRluc #A8-F5-G7 was selected by 3 consecutive rounds of limiting dilution under blasticidine selection. Cultures are maintained in complete media (consisting of: Roswell Park Memorial Institute medium (RPMI) 1640+10% FBS+10^−5 M β-mercaptoethanol+10 μg/mL gentamycin) with 5 μg/mL blasticidine, however, blasticidine selection is removed from the cells before performing the viral replication assay.
(§2) Serial dilutions of HIV-1 inhibitor compounds are prepared in complete media from 10 mM DMSO stock solutions. Eleven serial dilutions of 2.5× are made at 8× desired final concentration in a 1 ml deep well titer plate (96 wells). The 12th well contains complete media with no inhibitor and serves as the positive control. All samples contain the same concentration of DMSO 0.1% DMSO). A 25 μL aliquot of inhibitor is added, to triplicate wells, of a 96 well tissue culture treated clear view black microtiter plate (Corning Costar catalogue #3904). The total volume per well is 200 μL of media containing cells and inhibitor. The last row is reserved for uninfected C8166 LTRluc cells to serve as the background blank control and the first row is media alone.
(§3) C8166 LTRluc cells are counted and placed in a minimal volume of complete RPMI 1640 in a tissue culture flask (ex. 30×10^6 cells in 10 mL media/25 cm^2 flask). Cells are infected with HIV-1 or virus with variant integrase generated as described below at a […] (moi) of 0.005. Cells are incubated for 1.5 h at 37° C. on a rotating rack in a 5% CO2 incubator and re-suspended in complete RPMI to give a final concentration of 25,000-cells/175 μL. 175 μL of cell mix is added to wells of a 96 well microtiter plate containing 25 μL 8× inhibitors. 25,000 uninfected C8166-LTRluc cells/well in 200 μL complete RPMI are added to the last row for background control. Cells are incubated at 37° C. in 5% CO2 incubator for 3 days.
(§4) 50 μL Steady Glo (luciferase substrate T1/2=5 hours Promega catalogue #E2520) is added to each well of the 96 well plate. The relative light units (RLU) of luciferase is determined using the LUMIstar Galaxy luminometer (BMG LabTechnologies). Plates are read from the bottom for 2 seconds per well with a gain of 240.
(§5) The level of inhibition (% inhibition) of each well containing inhibitor is calculated as follows: […]
(§6) The calculated % inhibition values are used to determine EC50, slope factor (n) and maximum inhibition (Imax) by the non-linear regression routine NLIN procedure of SAS using the following equation: […]
(§7) The 2.12 virus with NL4.3 strain of HIV-1 integrase (SEQ ID NO: 1) is used for the Thr124/Thr125 variant integrase residues and HXB2 integrase is introduced into the 2.12 virus for the Ala124/Thr125 variant integrase residues. The remaining variants viruses are generated by site directed mutagenesis of NL4.3 integrase to introduce the Ala124/Ala125, Thr124/Ala125, Asn124/Thr125, or Asn124/Ala125 variants in the 2.12 virus. Molecular biology and generation of virus are performed in a similar manner to Doyon et al. J. Virol. 70(6):3763-9 (1996). Briefly, site directed mutagenesis is used to introduce silent mutations in the integrase gene of the 2.12 virus. […]

[2] = system: HIV-1 2.12 virus with Thr124/Thr125 variant integrase (NL4.3 integrase); assay: C8166 HIV-1 luciferase assay (EC50), T124/T125 integrase variant virus; conditions: Human immunodeficiency virus 1, C8166, read-out: EC50 (nM) T124/T125
From the text: as §1, §2, §3, §4, §5, §6, §7

[3] = system: HIV-1 2.12 virus with Thr124/Ala125 variant integrase; assay: C8166 HIV-1 luciferase assay (EC50), T124/A125 integrase variant virus; conditions: Human immunodeficiency virus 1, C8166, read-out: EC50 (nM) T124/A125
From the text: as §1, §2, §3, §4, §5, §6, §7

[4] = system: HIV-1 2.12 virus with Ala124/Ala125 variant integrase; assay: C8166 HIV-1 luciferase assay (EC50), A124/A125 integrase variant virus; conditions: Human immunodeficiency virus 1, C8166, read-out: EC50 (nM) A124/A125
From the text: as §1, §2, §3, §4, §5, §6, §7

Cc1nc2ccccc2c(-c2ccc(Cl)cc2F)c1[C@H](OC(C)(C)C)C(=O)O [Compound 1010]
EC50 [1]: 12 nM
EC50 [2]: 41 nM
EC50 [3]: 76 nM
EC50 [4]: 49 nM

Cc1nc2ccccc2c(-c2ccc3c(c2)CCO3)c1[C@H](OC(C)(C)C)C(=O)O [Compound 1014]
EC50 [1]: 19 nM
EC50 [2]: 87 nM
EC50 [3]: 76 nM
EC50 [4]: 68 nM

Cc1ccc(-c2c([C@H](OC(C)(C)C)C(=O)O)c(C)nc3ccccc23)cc1C [Compound 1008]
EC50 [1]: 11 nM
EC50 [2]: 59 nM
EC50 [3]: 49 nM
EC50 [4]: 55 nM

CCC(C)(C)Oc1c(C(C(=O)O)c2ccc3c4c(ccnc24)CCO3)c(C)nc2ccccc12 (stereo not drawn) [Compound 2002]
EC50 [1]: 9.9 nM
EC50 [2]: 19 nM
EC50 [3]: 24 nM
EC50 [4]: 13 nM

Cc1nc2ccccc2c(-c2ccc3c(c2)C(C)CCO3)c1[C@H](OC(C)(C)C)C(=O)O (stereo partly drawn) [Compound 1052]
EC50 [1]: 28 nM
EC50 [2]: 120 nM
EC50 [3]: 59 nM
EC50 [4]: 64 nM

Cc1nc2ccccc2c(-c2ccc3c(c2)CCC3)c1[C@H](OC(C)(C)C)C(=O)O [Compound 1023]
EC50 [1]: 12 nM
EC50 [2]: 29 nM
EC50 [3]: 31 nM
EC50 [4]: 37 nM

Cc1nc2ccccc2c(OC(C)C)c1C(C(=O)O)c1ccc2c3c(ccnc13)CCO2 (stereo not drawn) [Compound 2001]
EC50 [1]: 71 nM
EC50 [2]: 110 nM
EC50 [3]: 120 nM
EC50 [4]: 67 nM

Cc1nc2ccccc2c(-c2ccc3ncsc3c2)c1[C@H](OC(C)(C)C)C(=O)O [Compound 1136]
EC50 [1]: 91 nM
EC50 [2]: 200 nM
EC50 [3]: 140 nM
EC50 [4]: 170 nM

Cc1nc2ccccc2c(-c2ccc(CF)cc2F)c1[C@H](OC(C)(C)C)C(=O)O [Compound 1018]
EC50 [1]: 35 nM
EC50 [2]: 55 nM
EC50 [3]: 93 nM
EC50 [4]: 110 nM
